Test results from publication PMC11306511, “Combining VPS34 inhibitors with STING agonists enhances type I interferon signaling and anti‐tumor efficacy” (Molecular Oncology, 2024).

How the values were obtained:
[1] = Plasma protein binding, human; format: in vitro ADME; conditions: unbound/free fraction, read-out: PPB (% unbound) human
Experimental: (§1) Experiments were conducted at Aragen Life Sciences Ltd. (Hyderabad, India) according to internal standard procedures.

PXR = molecular target: T1, PXR (Homo sapiens, UniProt O75469); test: CYP3A4 induction, PXR; format: in vitro ADME
T1 sequence (O75469 1-434): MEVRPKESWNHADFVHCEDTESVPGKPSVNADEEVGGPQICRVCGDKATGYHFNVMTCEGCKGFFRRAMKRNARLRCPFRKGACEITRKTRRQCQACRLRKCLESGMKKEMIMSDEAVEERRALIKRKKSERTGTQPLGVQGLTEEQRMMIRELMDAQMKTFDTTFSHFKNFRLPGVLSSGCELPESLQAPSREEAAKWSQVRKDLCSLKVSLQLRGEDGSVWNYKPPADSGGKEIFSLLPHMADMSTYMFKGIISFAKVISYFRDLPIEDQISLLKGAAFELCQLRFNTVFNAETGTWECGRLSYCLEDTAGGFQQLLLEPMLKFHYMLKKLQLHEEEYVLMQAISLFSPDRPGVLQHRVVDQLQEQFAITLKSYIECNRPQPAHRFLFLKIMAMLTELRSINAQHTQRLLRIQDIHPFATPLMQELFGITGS
Experimental: as §1

B16-F10 cells = test: IFN/cytokine gene expression (qRT-PCR) and secretion (MSD) in B16-F10 cells; format: cell-based, murine; conditions: 2 μM, 24 h, vs DMSO
Experimental: RNA was isolated using the PureLink kit (#12183018A; Thermo Fisher) and DNA‐binding columns (Rneasy plus kit, #74134; Qiagen) and/or Dnase treatment (#12185010; Thermo Fisher). After quantification using NanoDrop, 50 ng·μL^−1 RNA was used for cDNA synthesis with SuperScript IV VILO Master Mix (#11756050; Thermo Fisher). Quantitative RT‐PCR was run with diluted cDNA (1 : 25 or 1 : 12.5), PowerUp SYBR Green Master Mix (#A25741; Thermo Fisher), and 200 nM primers (see Table S3) on a CFX Connect RT‐PCR system (BioRad, Hercules, CA, USA). Data were analyzed using the ΔΔCT method.
(§2) Cell culture medium was centrifuged at 300 g for 10 min at 4 °C and supernatant stored at −80 °C. Mouse blood was collected at termination in K2‐EDTA tubes on ice, centrifuged at 1270 g for 10 min at 4 °C, and plasma was stored at −80 °C. Cytokine levels were quantified using Mesoscale Discovery (MSD) assays: human CCL5 (#F21ZN), CXCL10 (#K151UFK), IFNβ (#K151VIK); mouse CCL5 (#K152A2K) and CXCL10 (#K152UFK). Low concentrations of human IFNβ were determined using High‐Sensitivity IFNβ ELISA (#41415‐1; PBL Assay Science, Piscataway, NJ, USA). CCL5/CXCL10 levels in some experiments were quantified using R&D Systems (Minneapolis, MN, USA) ELISAs: human CCL5 (#DY278) or CXCL10 (#DY266); mouse CCL5 (#DY478).

[2] = CaCo2 monolayer permeability assay; format: in vitro ADME; conditions: human, Caco-2
Experimental: as §1

VPS34 [3] = molecular target: T2, VPS34 (Homo sapiens, UniProt Q8NEB9); test: cell-based
T2 sequence (Q8NEB9 whole entry): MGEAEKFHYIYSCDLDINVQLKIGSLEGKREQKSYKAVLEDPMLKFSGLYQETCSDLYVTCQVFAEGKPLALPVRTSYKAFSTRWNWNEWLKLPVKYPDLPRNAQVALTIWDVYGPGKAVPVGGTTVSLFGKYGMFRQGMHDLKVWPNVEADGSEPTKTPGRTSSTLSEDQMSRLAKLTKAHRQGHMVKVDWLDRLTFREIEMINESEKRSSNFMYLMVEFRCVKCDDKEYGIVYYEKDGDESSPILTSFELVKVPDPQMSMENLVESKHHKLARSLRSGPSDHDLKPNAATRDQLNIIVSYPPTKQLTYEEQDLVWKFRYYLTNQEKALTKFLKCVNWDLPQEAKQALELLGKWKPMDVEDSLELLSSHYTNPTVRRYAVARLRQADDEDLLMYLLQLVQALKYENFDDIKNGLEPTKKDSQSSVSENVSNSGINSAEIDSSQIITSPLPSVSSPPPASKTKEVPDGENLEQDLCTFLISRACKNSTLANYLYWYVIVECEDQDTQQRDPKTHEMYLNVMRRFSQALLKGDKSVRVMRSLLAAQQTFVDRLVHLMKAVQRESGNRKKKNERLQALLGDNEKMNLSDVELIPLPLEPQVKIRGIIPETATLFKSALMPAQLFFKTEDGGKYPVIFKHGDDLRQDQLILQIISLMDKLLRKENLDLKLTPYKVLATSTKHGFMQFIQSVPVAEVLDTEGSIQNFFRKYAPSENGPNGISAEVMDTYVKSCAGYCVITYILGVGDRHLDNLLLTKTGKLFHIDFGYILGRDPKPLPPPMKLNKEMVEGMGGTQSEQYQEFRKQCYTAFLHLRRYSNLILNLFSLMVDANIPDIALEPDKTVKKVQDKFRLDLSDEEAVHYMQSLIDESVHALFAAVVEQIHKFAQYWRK
Experimental: (§3) Compound dilution series was prepared in DMSO and further diluted to 4× final assay concentration in assay buffer (Buffer Q #PV5125, Thermo Fisher, supplemented with 2 mM DTT and 2 mM MnCl2). 2.5 μL of the diluted compounds were added to a 384‐well assay plate followed by 2.5 μL of 16.5 nM VPS34 enzyme (#PV5126; Thermo Fisher) and incubated for 15 min. Five microliters of substrate mix (20 μM ATP #PV3227 and 200 μM PI : PS substrate #PV5122; Thermo Fisher) in assay buffer was added, mixed, and incubated for 1 h. Five microliters of stop‐detection mix (Adapta kinase assay #PV5099; Thermo Fisher) were added, mixed, and incubated for 30 min and read with Artemis microplate reader. Percent remaining activity as compared to DMSO‐treated control samples was calculated and IC50 values were generated using […] PRISM (GraphPad Software, Inc., San Diego, CA, USA). The NanoBRET assay was performed using the manufacturer's protocol. Briefly, 293T cells were transfected with the Kinase‐NanoLuc® Fusion Vector DNA overnight. The next day cells were treated with compound and the NanoBRET tracer reagent and then read out measuring donor and acceptor emission wavelength (450 and 610 nm).

CCL5 and CXCL10 = test: Plasma CCL5/CXCL10 in Renca tumor-bearing mice (Mesoscale Discovery); format: in vivo, mouse; conditions: Renca tumor-bearing BALB/c mice, 20 mg·kg^−1 oral daily, vs vehicle
Text: Study protocols were approved by the Institutional Animal Care and Use Committee of CrownBio in China (AN‐1903‐05‐313) or the LIH's animal welfare committee in Luxembourg (agreement LECR‐2018‐12). Mice were handled according to European Union guidelines, adhering to the principles of replacement, reduction, and refinement (3Rs). Animals were housed in appropriate accommodations conducive to their well‐being, with provisions for housing, feeding, and environmental enrichment to meet their physical and behavioral needs. Highly skilled personnel were involved in carrying out procedures related to the animal experiments to ensure proper care and handling. […] Tumor growth was measured using a caliper every other day and estimated as follows: volume (cm^3) = (width)^2 × length × 0.5.
as §2, with “Mouse blood was collected at termination in K2‐EDTA tubes on ice, centrifuged at 1270 g for 10 min at 4 °C, and plasma was stored at −80 °C.” left out

VPS34 [4] = molecular target: T2, VPS34; test: biochemical
Experimental: as §3

Shake flask LogD = format: physicochemical
Experimental: as §1

Me30966 cells = test: Gene expression (qRT-PCR) in Me30966 cells; format: cell-based, human; conditions: 2 μM, 24 h, vs DMSO
Experimental: (A) IFNB1 gene expression quantified by qRT-PCR after 24h treatment with DMSO control or 2 µM of VPS34 inhibitor
(=VPS34i, SB02024 or SAR405) in Me30966 cells.

[5] = PK profiling in H1299-GFP-2xFYVE tumor-bearing mice (plasma and tumor); format: in vivo, mouse
Experimental: The study was performed by Truly Translational AB (Lund, Sweden) following Swedish legislations and approved by the ethical committee Malmö/Lunds djurförsöksetiska nämnd (M120‐15). Animals were housed 5/cage in polysulfone IVC cages at a constant temperature with 12 h light‐dark cycles and free access to food, tap water, and cage enrichment. Animals were allowed to acclimatize to the housing conditions for at least a week before the start of experiments. Female 8‐week‐old NOD.Cg‐Prkdc^ scid Il2rg^ tm1Sug /JicTac (CIEA‐NOG®) mice (supplied by Taconic Biosciences, Rensselaer, NY, USA; n = 42) were implanted subcutaneously with 1.75 × 10^6 H1299‐GFP2xFYVE cells in serum‐free RPMI in 50% Matrigel. When tumors reached 300–400 mm^3 mice were randomized and dosed with 9 or 29 mg·kg^−1 SB02024 or vehicle (PEG 200 (98%)/Polysorbate (2%)). At indicated time points after dosing, blood samples were taken by heart puncture and tumors were removed. Pharmacokinetic (PK) analysis (plasma and tumor samples) was performed by Q&Q Labs (Gothenburg, Sweden). Plasma was precipitated with acetonitrile, and after centrifugation, the soluble material was recovered. Tumor of 50–150 mg was homogenized mechanically in the presence of 5× acetonitrile relative to tissue weight using Precellys Tissue Homogenizer (Bertin Technologies, Montigny‐le‐Bretonneux, France). Samples were centrifuged and soluble material was kept for further analysis. SB02024 levels were determined using UHPLC‐QQQ: Agilent 6460 (LC–MS/MS; Agilent Technologies, Santa Clara, CA, USA). Pharmacodynamic (PD) analysis of GFP2xFYVE punctae was performed by Offspring Biosciences (Södertalje, Sweden). H1299‐GFP2xFYVE tumors were fixed by immersion in 4% formalin in PBS for 72 h at 4 °C, sampled randomly by six biopsies (diameter 1 mm), and reassembled into three separate tumor microarrays (TMAs). Each TMA block was sectioned and analyzed at eight equally spaced levels. The immunohistochemical staining was performed using the Ventana Discovery XT protocol. […]

In vivo mouse PK = test: In vivo mouse PK
Experimental: as §1

- fraction unbound [1]: 0.44
- induction of CYP3A4 (in words) (PXR): no induction
- Papp A→B [2]: 51 ×10⁻⁶ cm/s
- efflux ratio [2]: 0.9
- IC50 (VPS34 [3]): 5.7 nM
- IC50 (VPS34 [4]): 5 nM
- logD (Shake flask LogD): 1.8
- Cmax ([5]; female, NOD.Cg-Prkdc scid Il2rg tm1Sug/JicTac (CIEA-NOG), mouse, oral 29 mg·kg^−1, plasma and tumor, H1299-GFP-2xFYVE tumor-bearing CIEA NOG mice): ~10 µM
- half-life ([5]; female, NOD.Cg-Prkdc scid Il2rg tm1Sug/JicTac (CIEA-NOG), mouse, oral 29 mg·kg^−1, tumor and plasma concentrations): 2.5 h
- time of Cmax ([5]; oral 29 mg·kg^−1, plasma and tumor): 2 h
- Vd (In vivo mouse PK; in vivo mouse PK): 2.53 L/kg
- clearance (In vivo mouse PK; in vivo mouse PK): 26 mL/min/kg
- half-life (In vivo mouse PK; in vivo mouse PK, read-out: t½ (converted)): 1.15 h
- in vitro and in vivo clearance (in words) (In vivo mouse PK; mouse, in vivo): low
Compound: C[C@@H]1COCCN1c1cc(N2CCCC[C@@H]2C(F)(F)F)[nH]c(=O)c1 [SB02024]
- transcription of IFNB1 and ISGs IRF1, IRF7, IRF9 (B16-F10 cells): significantly increased
- CCL5 and CXCL10 in blood plasma (CCL5 and CXCL10): significant increase
- IFNB1 expression (Me30966 cells): significantly increased
